Test results as given in PubChem BioAssay AID248 (DTP/NCI, 2004).
Several values for one entry are separate records, joined by “and”; a condition that tells them apart may be missing. Equal values may be shown once. Inconclusive results and toxic doses are left out.

Tested on: L1210 leukemia ip in BDF1 mice, survival T/C
Assay: NCI In Vivo Anticancer Drug Screen. Data for tumor model L1210 Leukemia (intraperitoneal) in B6D2F1 (BDF1) mice
Conditions: endpoint: mean survival time, higher = longer survival
Summary of the method: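 Ratio derived from survival: compound-dosed mice over vehicle-dosed mice, all bearing a transplantable tumor.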

[1] = dose: 100.0 mg/kg/injection, schedule: Q04DX003 (ip), vehicle: saline with Tween-80
[2] = dose: 200.0 mg/kg/injection, schedule: Q04DX003 (ip), vehicle: saline with Tween-80
[3] = dose: 400.0 mg/kg/injection, schedule: Q04DX003 (ip), vehicle: saline with Tween-80
[4] = dose: 100.0 mg/kg/injection, schedule: Q04DX003 (ip), vehicle: Klucel (hydroxypropylcellulose) (HPC)
[5] = dose: 100.0 mg/kg/injection, schedule: Q01DX001 (ip), vehicle: other
[6] = dose: 200.0 mg/kg/injection, schedule: Q01DX001 (ip), vehicle: other
[7] = dose: 400.0 mg/kg/injection, schedule: Q01DX001 (ip), vehicle: other
[8] = dose: 100.0 mg/kg/injection, schedule: Q04DX003 (ip), vehicle: other
[9] = dose: 200.0 mg/kg/injection, schedule: Q04DX003 (ip), vehicle: other
[10] = dose: 400.0 mg/kg/injection, schedule: Q04DX003 (ip), vehicle: other
[11] = dose: 200.0 mg/kg/injection, schedule: Q04DX003 (ip), vehicle: Klucel (hydroxypropylcellulose) (HPC)
[12] = dose: 400.0 mg/kg/injection, schedule: Q04DX003 (ip), vehicle: Klucel (hydroxypropylcellulose) (HPC)
[13] = dose: 100.0 mg/kg/injection, schedule: Q01DX001 (ip), vehicle: Klucel (hydroxypropylcellulose) (HPC)
[14] = dose: 200.0 mg/kg/injection, schedule: Q01DX001 (ip), vehicle: Klucel (hydroxypropylcellulose) (HPC)
[15] = dose: 400.0 mg/kg/injection, schedule: Q01DX001 (ip), vehicle: Klucel (hydroxypropylcellulose) (HPC)

## Nc1ccc2c(c1)-c1ccccc1C1=NCCN12
dose: 2.5 mg/kg/injection, schedule: Q04DX003 (ip), vehicle: Klucel (hydroxypropylcellulose) (HPC)
  T/C: 102 % of control
dose: 5.0 mg/kg/injection, schedule: Q01DX009 (ip), vehicle: Klucel (hydroxypropylcellulose) (HPC)
  T/C: 98 % of control
dose: 5.0 mg/kg/injection, schedule: Q04DX003 (ip), vehicle: Klucel (hydroxypropylcellulose) (HPC)
  T/C: 102 % of control
dose: 10.0 mg/kg/injection, schedule: Q01DX009 (ip), vehicle: Klucel (hydroxypropylcellulose) (HPC)
  T/C: 98 % of control
dose: 10.0 mg/kg/injection, schedule: Q04DX003 (ip), vehicle: Klucel (hydroxypropylcellulose) (HPC)
  T/C: 93 % of control
dose: 20.0 mg/kg/injection, schedule: Q01DX009 (ip), vehicle: Klucel (hydroxypropylcellulose) (HPC)
  T/C: 96 % of control
dose: 20.0 mg/kg/injection, schedule: Q04DX003 (ip), vehicle: Klucel (hydroxypropylcellulose) (HPC)
  T/C: 90 % of control

## O=[N+]([O-])c1ccc(Cl)cc1/C=N/Nc1c2ccccc2nc2ccccc12
dose: 100.0 mg/kg/injection, schedule: Q01DX001 (ip), vehicle: saline
  T/C: 92 % of control

## CCNC(=O)CS(=O)(=O)c1ccc(C)cc1
[1]
  T/C: 101 % of control
[2]
  T/C: 94 % of control
[3]
  T/C: 97 % of control

## CCC(C)NC(=O)Oc1cccc(NC(=O)N(C)C)c1 (configuration not stated)
[1]
  T/C: 92 % of control
[2]
  T/C: 89 % of control
[3]
  T/C: 90 % of control

## CC1(C)N=C(N)N=C(N)N1c1cccc(CCCCc2ccc(Cl)cc2Cl)c1
dose: 5.0 mg/kg/injection, schedule: Q01DX001 (ip), vehicle: saline
  T/C: 94 % of control
dose: 6.25 mg/kg/injection, schedule: Q04DX003 (ip), vehicle: saline with Tween-80
  T/C: 98 % of control
dose: 10.0 mg/kg/injection, schedule: Q01DX001 (ip), vehicle: saline
  T/C: 100 % of control
dose: 12.5 mg/kg/injection, schedule: Q04DX003 (ip), vehicle: saline with Tween-80
  T/C: 93 % of control
dose: 20.0 mg/kg/injection, schedule: Q01DX001 (ip), vehicle: saline
  T/C: 100 % of control
dose: 25.0 mg/kg/injection, schedule: Q04DX003 (ip), vehicle: Klucel (hydroxypropylcellulose) (HPC)
  T/C: 101 % of control
dose: 25.0 mg/kg/injection, schedule: Q04DX003 (ip), vehicle: saline with Tween-80
  T/C: 98 % of control
dose: 50.0 mg/kg/injection, schedule: Q04DX003 (ip), vehicle: Klucel (hydroxypropylcellulose) (HPC)
  T/C: 100 % of control
[4]
  T/C: 93 % of control

## C(=C\c1ccccc1)/C=N/N=C/C=C/c1ccccc1
[5]
  T/C: 105 % of control
dose: 100.0 mg/kg/injection, schedule: Q01DX009 (ip), vehicle: saline with Tween-80
  T/C: 94 % of control
dose: 100.0 mg/kg/injection, schedule: Q04DX002 (ip), vehicle: Klucel (hydroxypropylcellulose) (HPC)
  T/C: 100 % of control
[1]
  T/C: 90 % of control
[6]
  T/C: 97 % of control
dose: 200.0 mg/kg/injection, schedule: Q01DX009 (ip), vehicle: saline with Tween-80
  T/C: 90 % of control
dose: 200.0 mg/kg/injection, schedule: Q04DX002 (ip), vehicle: Klucel (hydroxypropylcellulose) (HPC)
  T/C: 96 % of control
[2]
  T/C: 89 % of control
[7]
  T/C: 94 % of control
dose: 400.0 mg/kg/injection, schedule: Q01DX009 (ip), vehicle: saline with Tween-80
  T/C: 94 % of control
dose: 400.0 mg/kg/injection, schedule: Q04DX002 (ip), vehicle: Klucel (hydroxypropylcellulose) (HPC)
  T/C: 100 % of control
[3]
  T/C: 92 % of control

## Cc1nc(N)nc(C)c1N=Nc1ccc(Br)cc1
[8]
  T/C: 90 % of control
[9]
  T/C: 102 % of control
[10]
  T/C: 100 % of control

## COc1ccc(NC(=O)/C=C/c2ccc([N+](=O)[O-])cc2)cc1S(=O)(=O)F
[4]
  T/C: 98 % of control
[11]
  T/C: 107 % of control
[12]
  T/C: 98 % of control

## CN(C)c1ccccc1C#N
dose: 100.0 mg/kg/injection, schedule: Q01DX009 (ip), vehicle: carboxymethylcellulose (CMC)
  T/C: 93 % of control and 103 % of control
dose: 100.0 mg/kg/injection, schedule: Q04DX002 (ip), vehicle: carboxymethylcellulose (CMC)
  T/C: 108 % of control
dose: 100.0 mg/kg/injection, schedule: Q04DX003 (ip), vehicle: carboxymethylcellulose (CMC)
  T/C: 106 % of control
dose: 200.0 mg/kg/injection, schedule: Q01DX009 (ip), vehicle: carboxymethylcellulose (CMC)
  T/C: 98 % of control and 104 % of control
dose: 200.0 mg/kg/injection, schedule: Q04DX002 (ip), vehicle: carboxymethylcellulose (CMC)
  T/C: 94 % of control
dose: 200.0 mg/kg/injection, schedule: Q04DX003 (ip), vehicle: carboxymethylcellulose (CMC)
  T/C: 101 % of control
dose: 400.0 mg/kg/injection, schedule: Q01DX009 (ip), vehicle: carboxymethylcellulose (CMC)
  T/C: 113 % of control
dose: 400.0 mg/kg/injection, schedule: Q04DX002 (ip), vehicle: carboxymethylcellulose (CMC)
  T/C: 115 % of control
dose: 400.0 mg/kg/injection, schedule: Q04DX003 (ip), vehicle: carboxymethylcellulose (CMC)
  T/C: 98 % of control

## CC[C@@]1(O)c2cc3n(c(=O)c2CO[C@H]1O)Cc1cc2ccccc2nc1-3
dose: 0.5 mg/kg/injection, schedule: Q01DX Z (ip), vehicle: saline
  T/C: 96 % of control
dose: 1.0 mg/kg/injection, schedule: Q01DX Z (ip), vehicle: saline
  T/C: 94 % of control
dose: 2.0 mg/kg/injection, schedule: Q01DX Z (ip), vehicle: saline
  T/C: 97 % of control
dose: 4.0 mg/kg/injection, schedule: Q01DX015 (ip), vehicle: saline
  T/C: 104 % of control
dose: 4.0 mg/kg/injection, schedule: Q01DX Z (ip), vehicle: saline
  T/C: 97 % of control
dose: 8.0 mg/kg/injection, schedule: Q01DX007 (ip), vehicle: other
  T/C: 108 % of control
dose: 8.0 mg/kg/injection, schedule: Q01DX012 (ip), vehicle: saline
  T/C: 95 % of control
dose: 8.0 mg/kg/injection, schedule: Q01DX015 (ip), vehicle: saline
  T/C: 106 % of control
dose: 16.0 mg/kg/injection, schedule: Q01DX007 (ip), vehicle: other
  T/C: 112 % of control
dose: 16.0 mg/kg/injection, schedule: Q01DX012 (ip), vehicle: saline
  T/C: 108 % of control
dose: 16.0 mg/kg/injection, schedule: Q01DX015 (ip), vehicle: saline
  T/C: 150 % of control

## C=NC1CCCCC1
dose: 100.0 mg/kg/injection, schedule: Q04DX002 (ip), vehicle: gum acacia
  T/C: 105 % of control
dose: 200.0 mg/kg/injection, schedule: Q04DX002 (ip), vehicle: gum acacia
  T/C: 105 % of control
dose: 400.0 mg/kg/injection, schedule: Q04DX002 (ip), vehicle: gum acacia
  T/C: 92 % of control

## [N-]=[N+]=N/C(=C\c1ccccc1)C(=O)c1ccccc1
[13]
  T/C: 94 % of control
[8]
  T/C: 100 % of control
[14]
  T/C: 98 % of control
[9]
  T/C: 98 % of control
[15]
  T/C: 94 % of control
[10]
  T/C: 91 % of control

## CC12CCC(Cl)CC1=CCC1C2CCC2(C)c3nc(N)ncc3CC12 (configuration not stated)
dose: 100.0 mg/kg/injection, schedule: Q04DX003 (sc), vehicle: gum acacia
  T/C: 101 % of control
dose: 200.0 mg/kg/injection, schedule: Q04DX003 (sc), vehicle: gum acacia
  T/C: 92 % of control
dose: 400.0 mg/kg/injection, schedule: Q04DX003 (sc), vehicle: gum acacia
  T/C: 103 % of control

## COC(=O)C(C(=O)Oc1ccc([N+](=O)[O-])cc1)c1ccccc1 (configuration not stated)
[13]
  T/C: 97 % of control
[4]
  T/C: 101 % of control
[14]
  T/C: 97 % of control
dose: 200.0 mg/kg/injection, schedule: Q01DX009 (ip), vehicle: Klucel (hydroxypropylcellulose) (HPC)
  T/C: 102 % of control
[11]
  T/C: 103 % of control
[15]
  T/C: 100 % of control
dose: 400.0 mg/kg/injection, schedule: Q01DX009 (ip), vehicle: Klucel (hydroxypropylcellulose) (HPC)
  T/C: 109 % of control
[12]
  T/C: 101 % of control

## Cc1ccc2c(C)c(C)c(=O)n(C)c2c1
[5]
  T/C: 104 % of control
[6]
  T/C: 98 % of control
[7]
  T/C: 95 % of control

## COc1cc(/C=C2\SC(=O)NC2=O)ccc1O
dose: 12.5 mg/kg/injection, schedule: Q01DX009 (ip), vehicle: saline with Tween-80
  T/C: 106 % of control
dose: 25.0 mg/kg/injection, schedule: Q01DX009 (ip), vehicle: saline with Tween-80
  T/C: 101 % of control
dose: 150.0 mg/kg/injection, schedule: Q01DX009 (ip), vehicle: saline with Tween-80
  T/C: 101 % of control
